28 molecules from patent US9663508B2, “Biaryl acyl-sulfonamide compounds as sodium channel inhibitors” (AMGEN INC., priority 2013, dated 2017) can be followed below.

Data set [1] deals with human Nav 1.5 (Homo sapiens (Human), UniProt Q14524). Description: Nav 1.5 IonWorks Quattro (IWQ) in vitro assay. It counts as cell-based.
Description: Nav 1.7 or Nav 1.5 Ion Works Quattro (IWQ) In Vitro Assay
HEK 293 Cells stably transfected with either human Nay 1.7 or human Nay 1.5 were recorded in population patch-clamp mode with the IonWorks® Quattro automated electrophysiology system in accordance with the manufacturer's specifications (Molecular Devices, LLC, Sunnyvale, Calif.). Sodium channel currents were measured in response to a train of depolarizations that induced successively greater inactivation.
Cells were held at −110 mV for three seconds (Nav 1.7) or half a second (Nav 1.5) from a holding voltage of −15 mV, then put through a series of 26 pulses of 150 msec duration to −20 mV at a frequency of 5 Hz. Cells were then left unclamped for a period of 3 to 8 minutes while a single concentration of test compound was added. Cells were then reclamped and put through the same voltage protocol. Current at the end of the 26th pulse to −20 mV was subtracted from the peak current evoked by the 26th pulse to −20 mV to correct for leak current. Percent block was calculated for each concentration in duplicate, and IC50 curves were fitted to percent block as a function of concentration.
In data set [2] the target is human Nav1.7 (Homo sapiens (Human), UniProt Q15858). Description: Nav 1.7 in vitro PatchXpress (PX) assay. It counts as cell-based.

Molecules are shown by their SMILES. Like-named read-outs stand apart in the source and are kept apart here.

Broadly, the IC50 is the midpoint of a concentration-inhibition curve.

Sequence of human Nav1.7 (Q15858 whole entry): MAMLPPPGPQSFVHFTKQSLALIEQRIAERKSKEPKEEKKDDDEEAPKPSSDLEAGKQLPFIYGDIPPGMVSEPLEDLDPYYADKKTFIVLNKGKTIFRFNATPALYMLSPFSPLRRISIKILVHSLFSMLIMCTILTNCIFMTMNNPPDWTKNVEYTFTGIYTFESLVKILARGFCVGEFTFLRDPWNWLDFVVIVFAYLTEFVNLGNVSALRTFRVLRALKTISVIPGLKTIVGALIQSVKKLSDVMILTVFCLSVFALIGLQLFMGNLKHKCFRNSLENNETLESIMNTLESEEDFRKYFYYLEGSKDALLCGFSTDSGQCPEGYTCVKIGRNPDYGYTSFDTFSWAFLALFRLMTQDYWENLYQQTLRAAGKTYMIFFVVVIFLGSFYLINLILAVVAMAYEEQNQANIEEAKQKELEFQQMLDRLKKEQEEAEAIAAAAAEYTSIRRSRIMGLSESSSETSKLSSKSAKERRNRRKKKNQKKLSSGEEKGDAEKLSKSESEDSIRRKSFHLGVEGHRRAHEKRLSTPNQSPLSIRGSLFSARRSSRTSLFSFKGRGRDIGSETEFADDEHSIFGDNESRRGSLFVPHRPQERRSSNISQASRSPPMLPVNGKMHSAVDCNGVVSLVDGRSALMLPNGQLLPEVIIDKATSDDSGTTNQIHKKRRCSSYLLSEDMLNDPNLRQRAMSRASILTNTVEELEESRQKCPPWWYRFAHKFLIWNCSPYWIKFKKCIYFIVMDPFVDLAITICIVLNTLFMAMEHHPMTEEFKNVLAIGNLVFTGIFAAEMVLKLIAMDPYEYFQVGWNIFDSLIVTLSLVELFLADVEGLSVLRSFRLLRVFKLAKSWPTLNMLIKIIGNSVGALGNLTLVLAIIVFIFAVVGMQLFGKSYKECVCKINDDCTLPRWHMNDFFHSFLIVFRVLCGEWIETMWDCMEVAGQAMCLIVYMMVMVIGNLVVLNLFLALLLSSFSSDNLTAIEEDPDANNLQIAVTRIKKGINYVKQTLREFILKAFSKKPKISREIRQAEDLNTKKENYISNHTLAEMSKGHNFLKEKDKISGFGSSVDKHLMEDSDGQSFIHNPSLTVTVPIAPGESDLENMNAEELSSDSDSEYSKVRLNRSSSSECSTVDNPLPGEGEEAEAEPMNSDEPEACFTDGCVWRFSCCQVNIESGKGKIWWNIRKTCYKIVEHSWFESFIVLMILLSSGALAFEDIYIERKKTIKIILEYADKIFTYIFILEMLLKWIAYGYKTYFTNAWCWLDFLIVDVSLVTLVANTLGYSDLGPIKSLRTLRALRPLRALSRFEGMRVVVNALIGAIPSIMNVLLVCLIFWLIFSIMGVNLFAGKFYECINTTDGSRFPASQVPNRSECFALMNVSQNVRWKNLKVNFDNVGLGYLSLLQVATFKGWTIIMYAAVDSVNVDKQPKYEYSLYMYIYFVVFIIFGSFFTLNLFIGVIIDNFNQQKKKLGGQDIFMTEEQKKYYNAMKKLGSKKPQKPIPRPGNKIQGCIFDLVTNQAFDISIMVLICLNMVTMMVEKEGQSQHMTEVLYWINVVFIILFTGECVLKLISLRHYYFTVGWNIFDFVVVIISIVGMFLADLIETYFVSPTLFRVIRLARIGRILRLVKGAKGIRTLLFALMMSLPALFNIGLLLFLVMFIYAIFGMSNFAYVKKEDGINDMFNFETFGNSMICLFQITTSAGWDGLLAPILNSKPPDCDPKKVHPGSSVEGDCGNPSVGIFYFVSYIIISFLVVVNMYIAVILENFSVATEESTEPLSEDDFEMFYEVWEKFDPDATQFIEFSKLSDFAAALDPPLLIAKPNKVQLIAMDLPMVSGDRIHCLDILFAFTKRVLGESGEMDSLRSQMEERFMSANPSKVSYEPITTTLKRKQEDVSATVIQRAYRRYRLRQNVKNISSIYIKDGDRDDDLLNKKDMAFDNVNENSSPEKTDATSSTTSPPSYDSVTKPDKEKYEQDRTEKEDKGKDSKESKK
Sequence of human Nav 1.5 (Q14524 whole entry): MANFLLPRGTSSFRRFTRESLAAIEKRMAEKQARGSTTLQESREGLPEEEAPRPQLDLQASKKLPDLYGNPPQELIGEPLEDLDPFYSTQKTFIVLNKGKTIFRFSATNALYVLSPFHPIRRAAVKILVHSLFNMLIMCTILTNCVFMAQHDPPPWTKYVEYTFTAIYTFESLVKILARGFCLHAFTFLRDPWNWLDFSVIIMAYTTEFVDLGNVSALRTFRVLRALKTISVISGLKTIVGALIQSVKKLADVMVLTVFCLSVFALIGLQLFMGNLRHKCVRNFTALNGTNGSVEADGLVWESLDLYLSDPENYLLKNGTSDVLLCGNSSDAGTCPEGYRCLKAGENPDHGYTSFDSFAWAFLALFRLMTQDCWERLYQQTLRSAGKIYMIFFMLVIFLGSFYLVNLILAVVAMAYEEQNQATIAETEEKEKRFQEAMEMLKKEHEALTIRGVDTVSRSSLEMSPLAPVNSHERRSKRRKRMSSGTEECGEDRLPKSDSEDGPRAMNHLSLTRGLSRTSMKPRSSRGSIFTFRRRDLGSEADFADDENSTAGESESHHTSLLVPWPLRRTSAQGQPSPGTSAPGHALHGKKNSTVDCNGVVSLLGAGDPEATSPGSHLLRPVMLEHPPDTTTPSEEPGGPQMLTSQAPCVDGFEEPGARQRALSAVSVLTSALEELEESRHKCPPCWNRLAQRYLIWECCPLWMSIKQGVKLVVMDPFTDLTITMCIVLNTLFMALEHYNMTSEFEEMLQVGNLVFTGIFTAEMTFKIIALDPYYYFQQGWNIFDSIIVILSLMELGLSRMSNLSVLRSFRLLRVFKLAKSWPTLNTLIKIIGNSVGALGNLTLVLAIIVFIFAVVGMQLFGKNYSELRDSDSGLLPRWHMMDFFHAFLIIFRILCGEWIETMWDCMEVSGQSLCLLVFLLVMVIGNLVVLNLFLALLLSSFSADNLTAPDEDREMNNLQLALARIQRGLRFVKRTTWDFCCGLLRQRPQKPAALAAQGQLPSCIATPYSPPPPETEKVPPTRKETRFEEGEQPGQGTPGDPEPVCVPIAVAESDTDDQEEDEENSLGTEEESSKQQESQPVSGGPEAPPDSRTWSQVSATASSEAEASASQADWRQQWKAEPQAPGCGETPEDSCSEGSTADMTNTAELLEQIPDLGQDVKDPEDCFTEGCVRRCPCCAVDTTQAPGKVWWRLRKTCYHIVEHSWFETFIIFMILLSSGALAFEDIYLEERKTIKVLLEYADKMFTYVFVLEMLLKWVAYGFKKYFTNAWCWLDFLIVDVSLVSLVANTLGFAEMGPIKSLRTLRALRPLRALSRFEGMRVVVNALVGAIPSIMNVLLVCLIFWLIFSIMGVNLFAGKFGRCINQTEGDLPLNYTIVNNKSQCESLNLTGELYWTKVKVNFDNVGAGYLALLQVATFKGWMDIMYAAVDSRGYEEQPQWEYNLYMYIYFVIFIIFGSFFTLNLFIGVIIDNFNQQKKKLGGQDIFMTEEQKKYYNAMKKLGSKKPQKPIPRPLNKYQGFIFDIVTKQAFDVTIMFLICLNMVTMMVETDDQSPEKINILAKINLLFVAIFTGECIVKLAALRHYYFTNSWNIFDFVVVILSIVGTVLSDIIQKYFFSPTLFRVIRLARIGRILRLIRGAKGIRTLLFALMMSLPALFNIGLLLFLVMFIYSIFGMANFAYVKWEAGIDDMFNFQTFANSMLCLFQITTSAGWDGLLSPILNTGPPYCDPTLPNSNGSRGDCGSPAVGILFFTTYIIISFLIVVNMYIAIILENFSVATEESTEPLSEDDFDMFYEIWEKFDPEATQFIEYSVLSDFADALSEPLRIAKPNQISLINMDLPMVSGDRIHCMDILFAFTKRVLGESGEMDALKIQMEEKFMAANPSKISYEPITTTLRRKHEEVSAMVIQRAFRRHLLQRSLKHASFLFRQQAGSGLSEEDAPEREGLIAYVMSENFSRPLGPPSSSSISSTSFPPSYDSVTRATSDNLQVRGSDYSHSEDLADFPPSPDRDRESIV

Take `Cc1cc(C(=O)NS(C)(=O)=O)c(F)cc1-c1cnc(Oc2cccc(Br)c2)c(Cl)c1` [Example 607, 4-(6-(3-bromophenoxy)-5-chloro-3-pyridinyl)-2-fluoro-5-methyl-N-(methylsulfonyl)benzamide]: the IC50 in data set [1] (read-out: NAV 1.5 IWQ IC50) was more than 3000 nM; in data set [2] it was 68.2 nM.
For `Cc1cc(C(=O)NS(C)(=O)=O)c(F)cc1-c1cnc(Oc2c(C)ccc3ccccc23)c(Cl)c1` [Example 608, 4-(5-chloro-6-((2-methyl-1-naphthalenyl)oxy)-3-pyridinyl)-2-fluoro-5-methyl-N-(methylsulfonyl)benzamide], in that order: more than 3000 nM and 48.1 nM.
With `Cc1cc(C(=O)NS(C)(=O)=O)c(F)cc1-c1cnc(Oc2ccc(Br)cc2)c(Cl)c1` [Example 609, 4-(6-(4-bromophenoxy)-5-chloro-3-pyridinyl)-2-fluoro-5-methyl-N-(methylsulfonyl)benzamide], the IC50 in data set [1] (read-out: NAV 1.5 IWQ IC50) was more than 3000 nM; in data set [2], 77.4 nM.
For `Cc1cc(C(=O)NS(C)(=O)=O)c(F)cc1-c1cnc(Oc2ccc(C(C)(C)C)cc2Cl)c(Cl)c1` [Example 611, 4-(6-(4-tert-butyl-2-chlorophenoxy)-5-chloro-3-pyridinyl)-2-fluoro-5-methyl-N-(methylsulfonyl)benzamide], in that order: more than 3000 nM and 76.1 nM.
The corresponding values for `Cc1cc(C(=O)NS(C)(=O)=O)c(F)cc1-c1cnc(Oc2ccccc2-c2ccccc2)c(Cl)c1` [Example 612, 4-(6-(2-biphenylyloxy)-5-chloro-3-pyridinyl)-2-fluoro-5-methyl-N-(methylsulfonyl)benzamide] are more than 3000 nM and 88.3 nM.
For `Cc1cc(C(=O)NS(C)(=O)=O)c(F)cc1-c1cnc(Oc2ccc(Cl)c3ccccc23)c(Cl)c1` [Example 613, 4-(5-chloro-6-((4-chloro-1-naphthalenyl)oxy)-3-pyridinyl)-2-fluoro-5-methyl-N-(methylsulfonyl)benzamide], in that order: more than 3000 nM and 92.7 nM.
With `Cc1cc(Br)ccc1Oc1ncc(-c2cc(F)c(C(=O)NS(C)(=O)=O)cc2C)cc1Cl` [Example 614, 4-(6-(4-bromo-2-methylphenoxy)-5-chloro-3-pyridinyl)-2-fluoro-5-methyl-N-(methylsulfonyl)benzamide], the IC50 in data set [1] (read-out: NAV 1.5 IWQ IC50) was more than 3000 nM; in data set [2], 68 nM.
For `Cc1cc(C(=O)NS(C)(=O)=O)c(F)cc1-c1cnc(Oc2ccc(F)c(F)c2F)c(Cl)c1` [Example 615, 4-(5-chloro-6-(2,3,4-trifluorophenoxy)-3-pyridinyl)-2-fluoro-5-methyl-N-(methylsulfonyl)benzamide], in that order: more than 3000 nM and 75.2 nM.
For `Cc1ccc(Cl)cc1Oc1ncc(-c2cc(F)c(C(=O)NS(C)(=O)=O)cc2C)cc1Cl` [Example 616, 4-(5-chloro-6-(5-chloro-2-methylphenoxy)-3-pyridinyl)-2-fluoro-5-methyl-N-(methylsulfonyl)benzamide], in that order: more than 3000 nM and 70.8 nM.
For `Cc1cc(C(=O)NS(C)(=O)=O)c(F)cc1-c1cnc(Oc2cc(Cl)ccc2F)c(Cl)c1` [Example 617, 4-(5-chloro-6-(5-chloro-2-fluorophenoxy)-3-pyridinyl)-2-fluoro-5-methyl-N-(methylsulfonyl)benzamide], in that order: more than 3000 nM and 93.3 nM.
With `Cc1cc(C(=O)NS(C)(=O)=O)c(F)cc1-c1cnc(Oc2cccc(C)c2F)c(Cl)c1` [Example 618, 4-(5-chloro-6-(2-fluoro-3-methylphenoxy)-3-pyridinyl)-2-fluoro-5-methyl-N-(methylsulfonyl)benzamide], the IC50 in data set [1] (read-out: NAV 1.5 IWQ IC50) is more than 3000 nM; in data set [2], 95 nM.
For `Cc1cc(C(=O)NS(C)(=O)=O)c(F)cc1-c1cnc(Oc2cccc(Cl)c2F)c(Cl)c1` [Example 619, 4-(5-chloro-6-(3-chloro-2-fluorophenoxy)-3-pyridinyl)-2-fluoro-5-methyl-N-(methylsulfonyl)benzamide], in that order: more than 3000 nM and 93.7 nM.
The corresponding values for `Cc1cc(Cl)ccc1Oc1ncc(-c2cc(F)c(C(=O)NS(C)(=O)=O)cc2C)cc1Cl` [Example 620, 4-(5-chloro-6-(4-chloro-2-methylphenoxy)-3-pyridinyl)-2-fluoro-5-methyl-N-(methylsulfonyl)benzamide] are more than 3000 nM and 76.1 nM.
For `Cc1cc(C(=O)NS(C)(=O)=O)c(F)cc1-c1cnc(Oc2c(F)cc(F)cc2F)c(Cl)c1` [Example 622, 4-(5-chloro-6-(2,4,6-trifluorophenoxy)-3-pyridinyl)-2-fluoro-5-methyl-N-(methylsulfonyl)benzamide], in that order: more than 3000 nM and 87.3 nM.
Turning to `Cc1ccc(Oc2ncc(-c3cc(F)c(C(=O)NS(C)(=O)=O)cc3C)cc2Cl)cc1F` [Example 623, 4-(5-chloro-6-(3-fluoro-4-methylphenoxy)-3-pyridinyl)-2-fluoro-5-methyl-N-(methylsulfonyl)benzamide], the results for the IC50 in data set [1] and in data set [2] were 4840 nM and 48.5 nM, respectively.
For the molecule `Cc1ccc(C(C)(C)C)c(Oc2ncc(-c3cc(F)c(C(=O)NS(C)(=O)=O)cc3C)cc2Cl)c1` [Example 624, 4-(6-(2-tert-butyl-5-methylphenoxy)-5-chloro-3-pyridinyl)-2-fluoro-5-methyl-N-(methylsulfonyl)benzamide], the 50% inhibitory concentration (IC50) in data set [1] (read-out: NAV 1.5 IWQ IC50) was more than 3000 nM; in data set [2], 82.7 nM.
For `Cc1cc(C(=O)NS(C)(=O)=O)c(F)cc1-c1cnc(Oc2c(Cl)cccc2Cl)c(Cl)c1` [Example 627, 4-(5-chloro-6-(2,6-dichlorophenoxy)-3-pyridinyl)-2-fluoro-5-methyl-N-(methylsulfonyl)benzamide], in that order: more than 3000 nM and 69.1 nM.
For `Cc1cc(C(=O)NS(C)(=O)=O)c(F)cc1-c1cnc(Oc2c(C)cc(Cl)cc2Cl)c(Cl)c1` [Example 628, 4-(5-chloro-6-(2,4-dichloro-6-methylphenoxy)-3-pyridinyl)-2-fluoro-5-methyl-N-(methylsulfonyl)benzamide], in that order: 2190 nM and 56 nM.
The corresponding values for `Cc1cc(C(=O)NS(C)(=O)=O)c(F)cc1-c1cnc(Oc2cc(F)cc(F)c2F)c(Cl)c1` [Example 629, 4-(5-chloro-6-(2,3,5-trifluorophenoxy)-3-pyridinyl)-2-fluoro-5-methyl-N-(methylsulfonyl)benzamide] are more than 3000 nM and 57.8 nM.
As to `Cc1cc(C(=O)NS(C)(=O)=O)c(F)cc1-c1cnc(Oc2cc(F)cc(F)c2)c(Cl)c1` [Example 630, 4-(5-chloro-6-(3,5-difluorophenoxy)-3-pyridinyl)-2-fluoro-5-methyl-N-(methylsulfonyl)benzamide], the half-inhibitory concentration (IC50) in data set [1] (read-out: NAV 1.5 IWQ IC50) was more than 3000 nM; in data set [2], 77.8 nM.
The corresponding values for `Cc1cc(C(=O)NS(C)(=O)=O)c(F)cc1-c1cnc(Oc2cc(F)cc(F)c2Cl)c(Cl)c1` [Example 631, 4-(5-chloro-6-(2-chloro-3,5-difluorophenoxy)-3-pyridinyl)-2-fluoro-5-methyl-N-(methylsulfonyl)benzamide] are more than 3000 nM and 62.8 nM.
The corresponding values for `Cc1cc(Cl)c(Oc2ncc(-c3cc(F)c(C(=O)NS(C)(=O)=O)cc3C)cc2Cl)cc1C` [Example 632, 4-(5-chloro-6-(2-chloro-4,5-dimethylphenoxy)-3-pyridinyl)-2-fluoro-5-methyl-N-(methylsulfonyl)benzamide] are more than 3000 nM and 81.5 nM.
For `Cc1cc(C(=O)NS(C)(=O)=O)c(F)cc1-c1cnc(Oc2c(C)cccc2C(C)(C)C)c(Cl)c1` [Example 633, 4-(6-(2-tert-butyl-6-methylphenoxy)-5-chloro-3-pyridinyl)-2-fluoro-5-methyl-N-(methylsulfonyl)benzamide], in that order: more than 3000 nM and 83.3 nM.
On to `Cc1ccc(Oc2ncc(-c3cc(F)c(C(=O)NS(C)(=O)=O)cc3C)cc2Cl)c(C(C)(C)C)c1` [Example 634, 4-(6-(2-tert-butyl-4-methylphenoxy)-5-chloro-3-pyridinyl)-2-fluoro-5-methyl-N-(methylsulfonyl)benzamide], for which the concentration for half-maximal inhibition (IC50) in data set [1] (read-out: NAV 1.5 IWQ IC50) was more than 3000 nM; in data set [2], 94.8 nM.
In the case of `Cc1cc(C(=O)NS(C)(=O)=O)c(F)cc1-c1cnc(O[C@H]2C[C@H]3CC[C@@H]2C3)c(Cl)c1` [Example 635, 4-(6-((1R,2S,4S)-bicyclo[2.2.1]hept-2-yloxy)-5-chloro-3-pyridinyl)-2-fluoro-5-methyl-N-(methylsulfonyl)benzamide], the half-maximal inhibitory concentration (IC50) in data set [1] (read-out: NAV 1.5 IWQ IC50) is more than 3000 nM; in data set [2], 80.9 nM.
For `Cc1cc(C(=O)NS(C)(=O)=O)c(F)cc1-c1cnc(OCc2nc3ccccc3s2)c(Cl)c1` [Example 636, 4-(6-(1,3-benzothiazol-2-ylmethoxy)-5-chloro-3-pyridinyl)-2-fluoro-5-methyl-N-(methylsulfonyl)benzamide], in that order: more than 3000 nM and 55.7 nM.
For `Cc1cc(C(=O)NS(C)(=O)=O)c(F)cc1-c1cnc(OCCC(C)C)c(Cl)c1` [Example 637, 4-(5-chloro-6-(3-methylbutoxy)-3-pyridinyl)-2-fluoro-5-methyl-N-(methylsulfonyl)benzamide], in that order: more than 3000 nM and 87.7 nM.
The corresponding values for `Cc1cc(C(=O)NS(C)(=O)=O)c(F)cc1-c1cnc(O[C@H](C)CCc2ccccc2)c(Cl)c1` [Example 638, 4-(5-chloro-6-(((1R)-1-methyl-3-phenylpropyl)oxy)-3-pyridinyl)-2-fluoro-5-methyl-N-(methylsulfonyl)benzamide, 4-(5-chloro-6-(((1S)-1-methyl-3-phenylpropyl)oxy)-3-pyridinyl)-2-fluoro-5-methyl-N-(methylsulfonyl)benzamide] are more than 3000 nM and 80 nM.
